From PMC4894417, “Quantitative High-Throughput Profiling of Environmental Chemicals and Drugs that Modulate Farnesoid X Receptor” (Scientific Reports, 2014)
Entries after “also recorded” stand apart in the source; their conditions may differ. Where two headings read alike, the source gives them in different places.

What was measured:
androgen receptor (AR) = androgen receptor (AR) (Homo sapiens, UniProt P10275); experiment: AR-bla reporter gene assay (agonist and antagonist modes)
vitamin D receptor (VDR) = vitamin D receptor (VDR) (Homo sapiens, UniProt P11473); experiment: VDR-bla reporter gene assay (agonist and antagonist modes)
[1] = target: peroxisome proliferator-activated receptor gamma (PPARγ) (Homo sapiens, UniProt P37231); experiment: PPARγ-bla reporter gene assay (agonist and antagonist modes)
[2] = system: FXR-UAS-bla HEK293T cells; experiment: Cell viability assay (CellTiter Glo) in the same well as FXR-bla; settings: for Cell viability IC50: Table 1, mean ± SD of 3 experiments
FXR-LBD [3] = target: T1, FXR-LBD (Homo sapiens, UniProt Q96RI1); experiment: FXR TR-FRET coactivator recruitment assay, agonist mode; format: biochemical; settings: Table 1; coactivator SRC2-2 recruitment
T1 construct: The glutathione S-transferase (GST)-tagged FXR-LBD protein; purchased Life Technologies
T1 sequence (Q96RI1 262-486 limits assumed): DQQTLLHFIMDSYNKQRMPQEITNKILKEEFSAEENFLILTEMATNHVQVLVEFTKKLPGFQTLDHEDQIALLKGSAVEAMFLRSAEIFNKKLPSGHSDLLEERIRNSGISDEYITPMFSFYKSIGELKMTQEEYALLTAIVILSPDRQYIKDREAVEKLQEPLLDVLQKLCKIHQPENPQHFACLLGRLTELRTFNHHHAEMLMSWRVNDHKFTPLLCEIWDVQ

FXR-LBD [4] = target: T1, FXR-LBD; experiment: FXR TR-FRET coactivator recruitment assay, antagonist mode (50 μM CDCA); format: biochemical
human FXR [5] = target: T2, human FXR (Homo sapiens, UniProt Q96RI1); experiment: FXR-bla reporter gene assay, agonist mode (qHTS); settings: for FXR-bla, agonist EC50: Table 1, confirmed compounds, mean ± SD of 3 experiments
[6] = target: estrogen receptor alpha (ERα) (Homo sapiens, UniProt P03372); experiment: ERα-bla reporter gene assay (agonist and antagonist modes)
human FXR [7] = target: T2, human FXR; experiment: FXR-bla reporter gene assay, antagonist mode (CDCA-induced transactivation); settings: for FXR antagonist activity: FXR-bla assay, CDCA-induced; for FXR-bla, antagonist Efficacy: Table 1, inhibition as percent of positive control (guggulsterone), 50 μM CDCA
[8] = target: peroxisome proliferator-activated receptor delta (PPARδ) (Homo sapiens, UniProt Q03181); experiment: PPARδ-bla reporter gene assay (agonist and antagonist modes)
[9] = Cell viability assay (CellTiter Glo) in the same well as FXR-bla; settings: human, FXR-UAS-bla HEK293T cells
[10] = Table S1, primary screening, 50 µM CDCA
[11] = Table 1, in the presence of 50 μM CDCA

peroxisome proliferator-activated receptor gamma (PPARγ), sequence (P37231 with tags, fused parts or gaps limits assumed): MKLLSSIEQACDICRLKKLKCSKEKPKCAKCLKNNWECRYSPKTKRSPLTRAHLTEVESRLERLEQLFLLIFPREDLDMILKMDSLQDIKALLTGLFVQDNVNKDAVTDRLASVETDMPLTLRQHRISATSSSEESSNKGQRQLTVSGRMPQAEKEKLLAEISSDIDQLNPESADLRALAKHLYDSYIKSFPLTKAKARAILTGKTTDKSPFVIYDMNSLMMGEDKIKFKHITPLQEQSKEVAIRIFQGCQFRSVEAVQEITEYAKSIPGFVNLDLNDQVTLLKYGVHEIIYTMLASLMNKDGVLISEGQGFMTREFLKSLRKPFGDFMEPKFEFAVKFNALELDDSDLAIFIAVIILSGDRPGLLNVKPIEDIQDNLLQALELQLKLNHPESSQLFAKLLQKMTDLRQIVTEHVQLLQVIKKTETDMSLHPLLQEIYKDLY
T2 sequence (Q96RI1 with tags, fused parts or gaps limits assumed): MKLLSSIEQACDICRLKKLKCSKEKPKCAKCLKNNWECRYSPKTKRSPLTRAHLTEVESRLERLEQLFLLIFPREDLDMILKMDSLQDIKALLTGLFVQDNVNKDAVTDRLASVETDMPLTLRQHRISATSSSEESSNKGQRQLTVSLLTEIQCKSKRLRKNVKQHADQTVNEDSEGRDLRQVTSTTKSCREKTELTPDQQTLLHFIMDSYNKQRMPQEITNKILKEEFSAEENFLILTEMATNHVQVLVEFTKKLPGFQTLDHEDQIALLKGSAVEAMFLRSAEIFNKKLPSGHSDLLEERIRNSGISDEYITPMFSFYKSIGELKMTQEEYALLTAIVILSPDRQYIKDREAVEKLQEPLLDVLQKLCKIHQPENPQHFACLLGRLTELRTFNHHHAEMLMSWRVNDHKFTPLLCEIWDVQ
androgen receptor (AR), sequence (P10275 with tags, fused parts or gaps limits assumed): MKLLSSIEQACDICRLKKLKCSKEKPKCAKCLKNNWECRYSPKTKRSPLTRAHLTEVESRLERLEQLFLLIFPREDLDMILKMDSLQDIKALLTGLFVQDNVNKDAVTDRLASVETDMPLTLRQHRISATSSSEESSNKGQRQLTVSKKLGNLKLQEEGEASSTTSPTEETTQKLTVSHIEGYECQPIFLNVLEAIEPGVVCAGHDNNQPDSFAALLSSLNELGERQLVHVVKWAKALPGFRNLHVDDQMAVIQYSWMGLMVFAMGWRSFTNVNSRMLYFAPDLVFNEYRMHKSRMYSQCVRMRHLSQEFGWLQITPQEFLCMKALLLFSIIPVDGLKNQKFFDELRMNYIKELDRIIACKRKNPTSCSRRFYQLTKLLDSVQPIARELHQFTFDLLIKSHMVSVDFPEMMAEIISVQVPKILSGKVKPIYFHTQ
peroxisome proliferator-activated receptor delta (PPARδ), sequence (Q03181 with tags, fused parts or gaps limits assumed): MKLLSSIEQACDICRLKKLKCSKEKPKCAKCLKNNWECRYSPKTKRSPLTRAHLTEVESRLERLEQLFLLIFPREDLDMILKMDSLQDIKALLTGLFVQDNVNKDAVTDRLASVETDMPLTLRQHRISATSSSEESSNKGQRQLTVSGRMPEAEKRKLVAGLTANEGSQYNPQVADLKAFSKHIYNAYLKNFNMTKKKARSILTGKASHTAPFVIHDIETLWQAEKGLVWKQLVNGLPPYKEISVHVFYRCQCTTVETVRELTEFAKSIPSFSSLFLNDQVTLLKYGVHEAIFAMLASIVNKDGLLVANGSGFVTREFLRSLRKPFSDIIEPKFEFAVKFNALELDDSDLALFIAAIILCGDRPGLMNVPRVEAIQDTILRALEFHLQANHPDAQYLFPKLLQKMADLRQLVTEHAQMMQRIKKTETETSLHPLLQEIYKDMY
estrogen receptor alpha (ERα), sequence (P03372 with tags, fused parts or gaps limits assumed): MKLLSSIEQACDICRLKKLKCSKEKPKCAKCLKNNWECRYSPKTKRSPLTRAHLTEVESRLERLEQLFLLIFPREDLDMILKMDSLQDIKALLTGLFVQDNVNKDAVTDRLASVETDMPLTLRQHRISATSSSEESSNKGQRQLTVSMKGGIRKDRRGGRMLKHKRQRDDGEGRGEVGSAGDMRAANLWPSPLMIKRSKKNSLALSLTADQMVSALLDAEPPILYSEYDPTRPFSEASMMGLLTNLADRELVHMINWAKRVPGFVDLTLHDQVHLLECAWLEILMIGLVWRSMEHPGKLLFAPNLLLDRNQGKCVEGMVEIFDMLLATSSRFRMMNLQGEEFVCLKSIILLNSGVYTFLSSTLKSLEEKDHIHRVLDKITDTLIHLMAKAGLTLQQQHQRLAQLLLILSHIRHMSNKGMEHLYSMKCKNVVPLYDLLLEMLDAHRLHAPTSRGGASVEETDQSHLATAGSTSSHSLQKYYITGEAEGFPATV
vitamin D receptor (VDR), sequence (P11473 with tags, fused parts or gaps limits assumed): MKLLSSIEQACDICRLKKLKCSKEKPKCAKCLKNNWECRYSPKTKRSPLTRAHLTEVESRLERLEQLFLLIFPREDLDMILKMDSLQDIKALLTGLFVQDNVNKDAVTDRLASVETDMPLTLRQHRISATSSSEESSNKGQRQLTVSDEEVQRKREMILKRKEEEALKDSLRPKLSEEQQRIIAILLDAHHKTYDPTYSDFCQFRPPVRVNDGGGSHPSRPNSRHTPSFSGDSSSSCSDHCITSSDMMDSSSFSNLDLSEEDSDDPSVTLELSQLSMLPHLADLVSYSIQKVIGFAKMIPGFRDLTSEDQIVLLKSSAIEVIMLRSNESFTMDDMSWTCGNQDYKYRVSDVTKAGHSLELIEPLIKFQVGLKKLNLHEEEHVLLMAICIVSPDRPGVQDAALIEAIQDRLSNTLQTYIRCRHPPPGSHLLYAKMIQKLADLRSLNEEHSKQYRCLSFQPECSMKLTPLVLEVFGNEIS

COC(=O)Nc1nc2ccccc2[nH]1 [Carbendazole]
AR activity (androgen receptor (AR)): inhibiting β-lactamase expression
VDR activity (vitamin D receptor (VDR)): inhibiting β-lactamase expression
PPARγ activity [1]: inhibiting β-lactamase expression
Cytotoxicity IC50 ([2]; Table S1, primary screening): Inactive

COc1cc2c(c(OC)c1OC)-c1ccc(OC)c(=O)cc1[C@@H](NC(C)=O)CC2 [Colchicine]
FXR TR-FRET, agonist EC50 (FXR-LBD [3]): Inactive
IC50 (FXR-LBD [4]): 0.03 µM
FXR-bla, agonist EC50 (human FXR [5]): Inactive
AR activity (androgen receptor (AR)): inhibiting β-lactamase expression
ERα activity [6]: antagonized
VDR activity (vitamin D receptor (VDR)): inhibiting β-lactamase expression
PPARγ activity [1]: inhibiting β-lactamase expression
Cell viability IC50 [2]: Inactive
FXR antagonist Efficacy (human FXR [7]): 55 ± 11%
FXR antagonist activity (human FXR [7]): inhibiting β-lactamase expression
IC50 (human FXR [7]; FXR-bla, antagonist IC50): 0.03 µM
IC50 (human FXR [7]; IC50, FXR-bla antagonist mode, Figure 4, primary screen): 0.011 µM

COc1cccc2c1C(=O)c1c(O)c3c(c(O)c1C2=O)C[C@@](O)(C(C)=O)C[C@@H]3O[C@H]1C[C@H](N)[C@H](O)[C@H](C)O1 [Daunorubicin]
VDR activity (vitamin D receptor (VDR)): antagonist response
PPARδ activity [8]: antagonist response
PPARγ activity [1]: antagonist response

COc1cccc2c1C(=O)c1c(O)c3c(c(O)c1C2=O)C[C@@](O)(C(=O)CO)C[C@@H]3O[C@H]1C[C@H](N)[C@H](O)[C@H](C)O1 [Doxorubicin]
ERα activity [6]: mixed agonist/antagonist response
VDR activity (vitamin D receptor (VDR)): antagonist response
PPARδ activity [8]: antagonist response
PPARγ activity [1]: antagonist response
Cell viability IC50 [2]: Inactive

CCOC(=O)C1=C(C)NC(C)=C(C(=O)OC)C1c1cccc(Cl)c1Cl (centres unmarked) [Felodipine]
PPARδ activity [8]: activated

COC1=CC(=O)C[C@@H](C)[C@]12Oc1c(Cl)c(OC)cc(OC)c1C2=O [Griseofulvin]
FXR agonist mode EC50 (human FXR [5]; Table S1, primary screening): Inactive
ERα activity [6]: antagonized
VDR activity (vitamin D receptor (VDR)): inhibiting β-lactamase expression
PPARγ activity [1]: inhibiting β-lactamase expression
Cytotoxicity IC50 ([2]; Table S1, primary screening): Inactive
IC50 (human FXR [7]): 42.3 ± 17.3 µM
FXR antagonist activity (human FXR [7]): antagonistic effects; also recorded: inhibiting β-lactamase expression
FXR antagonist mode Efficacy (human FXR [7]; [10]): 42 ± 7%

CC(=O)[C@]1(O)Cc2c(O)c3c(c(O)c2[C@@H](O[C@H]2C[C@H](N)[C@H](O)[C@H](C)O2)C1)C(=O)c1ccccc1C3=O [Idarubicin]
FXR TR-FRET, agonist EC50 (FXR-LBD [3]): Inactive
FXR TR-FRET, antagonist Efficacy (FXR-LBD [4]; [11]): 162 ± 41%
EC50 (human FXR [5]): 1.37 ± 0.38 µM
FXR-bla, agonist Efficacy (human FXR [5]; Table 1, activation as percent of positive control (CDCA 100%), mean ± SD of 3): 42 ± 16%
FXR agonist EC50 (human FXR [5]; Table S3, FXR-active drugs): Inactive
AR activity (androgen receptor (AR)): mixed agonist/antagonist response
ERα activity [6]: mixed agonist/antagonist response
VDR activity (vitamin D receptor (VDR)): antagonist response
PPARδ activity [8]: antagonist response
PPARγ activity [1]: antagonist response
Cell viability IC50 [2]: Inactive
FXR-bla, antagonist Efficacy (human FXR [7]): 107 ± 3%
FXR antagonist Efficacy (human FXR [7]; Table S3, 50 µM CDCA): 105 ± 11%

CCOC(=O)C1=C(C)NC(C)=C(C(=O)OCC)C1c1ccccc1/C=C/C(=O)OC(C)(C)C [Lacidipine]
EC50 (human FXR [5]): 23.5 ± 10.1 µM
FXR agonist activity (human FXR [5]; FXR-bla assay): activated
FXR agonist mode Efficacy (human FXR [5]; Table S1, primary screening, CDCA 100%): 70 ± 41%
AR activity (androgen receptor (AR)): activated
ERα activity [6]: activated
PPARδ activity [8]: activated
IC50 at 16 h [9]: 54.5 ± 39.5 µM
Cytotoxicity Efficacy ([2]; Table S1, primary screening): 56 ± 39%
IC50 (human FXR [7]): 32.3 ± 2.1 µM
FXR antagonist mode Efficacy (human FXR [7]; [10]): 55 ± 20%

COC(=O)C1=C(C)NC(COC(N)=O)=C(C(=O)OC(C)C)C1c1cccc(Cl)c1Cl (centres unmarked) [Lemildipine]
AR activity (androgen receptor (AR)): activated
ERα activity [6]: activated
PPARδ activity [8]: activated

COC(=O)Nc1nc2ccc(C(=O)c3ccccc3)cc2[nH]1 [Mebendazole]
FXR TR-FRET, agonist EC50 (FXR-LBD [3]): Inactive
FXR TR-FRET, antagonist IC50 (FXR-LBD [4]; [11]): Inactive
FXR-bla, agonist EC50 (human FXR [5]): Inactive
AR activity (androgen receptor (AR)): inhibiting β-lactamase expression
VDR activity (vitamin D receptor (VDR)): inhibiting β-lactamase expression
PPARγ activity [1]: inhibiting β-lactamase expression
Cell viability IC50 [2]: Inactive
IC50 (human FXR [7]): 2.19 ± 1.51 µM
FXR antagonist activity (human FXR [7]): inhibiting β-lactamase expression
FXR-bla, antagonist Efficacy (human FXR [7]): 70 ± 9%
FXR antagonist Efficacy (human FXR [7]; Table S3, 50 µM CDCA): 66 ± 12%

COc1cccc2c1C(=O)c1c(O)c3c(c(O)c1C2=O)C[C@@](O)(C(=O)CO)C[C@@H]3O[C@H]1C[C@H](N)[C@H](O[C@@H]2CCCCO2)[C@H](C)O1 [Pirarubicin]
EC50 (human FXR [5]): 16.9 ± 11 µM
FXR agonist mode Efficacy (human FXR [5]): 20 ± 9%
AR activity (androgen receptor (AR)): mixed agonist/antagonist response
ERα activity [6]: mixed agonist/antagonist response
VDR activity (vitamin D receptor (VDR)): antagonist response
PPARδ activity [8]: antagonist response
PPARγ activity [1]: antagonist response
Cytotoxicity IC50 ([2]; Table S1, primary screening): Inactive
FXR antagonist mode Efficacy (human FXR [7]): 60 ± 23%
IC50 (human FXR [7]; FXR antagonist mode IC50): 21.3 ± 15.6 µM
